Source: patent US5908868A, “Retinol derivatives useful for enhancing immune response” (priority 1995, dated 1999)
“Also recorded” adds a separate entry of the source.

Assays:
T cells = assay: T cell activation/proliferation; assay type: cell-based, murine; details: for activity in T cell activation relative to natural 13,14-DHR: synthetic isomers; for substitution for retinol in T cell activation: with mitogen/anti-CD3
Procedure: (§1) They were seeded into 96-well flat-bottom plates at varying cellular densities in a final volume of 100 μl. In control experiments, cells were cultured in medium containing 10% FCS or 3% human serum and 5×10^-5 M 2 ME. […] Cultures were carried out in duplicate. Plates were incubated at 37° C. in a humidified 5% CO2 atmosphere. Cellular proliferation was determined by [^3 H] thymidine uptake (0.5 uCi/well; New England Nuclear, Boston, Mass.) after the incubation times indicated for each experiment with a 4 hour labeling pulse. Cells were harvested onto glass filter and [^3 H]TdR incorporation was determined by liquid scintillation counting. The data presented are the means of duplicate or six replicate cultures. The restriction to duplicate measurements was necessary to conserve scarce 14HRR. […] Each experiment was repeated at least twice.

B lymphocytes [1] = assay: B cell growth/survival; assay type: cell-based; details: synthetic isomers
thymocytes [2] = assay: Growth-stimulating effect of retinol on anti-CD3 activated thymocytes in the presence of interleukins; assay type: cell-based, BALB/c mouse; details: 3 days
thymocytes [3] = assay: as above; assay type: cell-based, BALB/c mouse; details: for substitution for retinol by lymphokines/cytokines: anti-CD3-activated thymocytes; for substitution for retinol by lymphokines/cytokines / CPM anti-CD3, no Retinol: no retinol; for CPM anti-CD3, no Retinol: 3 days
Procedure: as §1, with “Cells were cultured in serum-free medium, referred to as ITLB, containing RPMI 1640 supplemented with 8×10^-7 M insulin (5 μg/ml), 7×10^-8 M transferrin (5 μg/ml), 2×10^-6 M linoleic acid, 2×10^-6 M delipidated BSA (0.12 mg/ml), 2 mM L-glutamine, 1 mM sodium pyruvate and antibiotics. They” for “They”, “ME. T cells and thymocytes were activated with immobilized, purified anti-mab CD3e or by the addition of Con A in the presence or absence of different concentrations of retinoids. Unless indicated otherwise, retinoids were replenished every 12 hours to maintain a reasonably constant concentration of these labile compounds in culture.” for “ME.”
Proliferation of activated thymocytes in response to interleukins in presence and absence of retinol. Purified thymocytes (5×10^5 cells/well) were activated with immobilized anti-CD3 antibody in serum-free medium in the presence or absence of interleukins and retinol (3×10^-6 M). Proliferation was assayed after three days by tritiated thymidine incorporation.

thymocytes [4] = assay: Proliferation of anti-CD3e activated thymocytes in serum-free medium; assay type: cell-based, BALB/c mouse
Procedure: FIG. 14A: Purified BALB/c thymocytes were activated with immobilized anti-CD3e antibody and cultivated for four days in ITLB medium with or without retinol (3×10^-6 M), 14HRR (6×10^-7 M) (fresh 14HRR was added every 12 hours), human serum (3%) or FCS (10%) at the cellular densities shown. Proliferation was assayed by tritiated thymidine incorporation into cellular DNA. The SDs were below 20%.
FIG. 14B: BALB/c thymocytes (10^6 /ml) were added to microtiter plates coated with titrated amounts of anti-CD3e antibody with […] retinol or without, as indicated. Proliferation was measured in hexaduplicate wells on day 3 by ^3 H thymidine incorporation assay.
FIG. 14C: BALB/c thymocytes (3×10^6 /ml) were activated with anti-CD3e mAb as FIG. 1A. The total number of viable cells was determined by counting trypan blue-excluding cells, and those of blast cells by counting viable large cells in six replicate wells. Because of the relatively low cell density required in the culture (see FIG. 14A), the numbers reported for blast cells are best estimates.
Purified thymocytes (5×10^5 cells/well) were stimulated by TCR crosslinking with immobilized anti-CD3e antibody (FIG. 15A) or 0.4 μg/ml Con A (FIG. 15B) in serum-free ITLB medium. The indicated amounts of retinoids were added either once at the beginning of the experiment (marked as "1x") or every 12 hours thereafter (marked as "6x"). DNA synthesis was measured after 72 hours by tritiated thymidine uptake as described.
Purified thymocytes (10^5 cells/well) were activated with anti-CD3 antibody in ITLB medium with or without retinol (3×10^-6 M), 14HRR (6×10^-7, added every 12 hours or human serum (3%)). DNA synthesis was measured daily by a 4 hour pulse of tritiated thymidine. SDs were ≤12%.
Thymocytes (5×10^4 /well) were activated by immobilized anti-CD3 mAb in medium ITLB. Retinol (2×10^-6 M) was added at initiation of culture, or delayed by 12 hours and 24 hours, respectively, or omitted altogether. ^3 H thymidine pulses of 4 hours were used to measure DNA synthesis of hexaduplicate wells. (SDs were 20% or less.)
Thymuses of 3 to 6-week-old BALB/c mice were teased in serum-free RPMI medium supplemented with 1% BSA, 10^-6 M linoleic acid and antibiotics. Depletion of accessory cells was achieved by two cycles of complement-dependent lysis with a mixture of anti-IA^d (5 μg/ml) and anti-Itd (1:500 diluted ascites fluid). Briefly, cells were incubated on ice for 30 minutes with Ia antibodies, spun down, resuspended in 1:40 diluted rabbit complement, and incubated at 37° C. for 45 minutes. Incubations and two subsequent washes were carried out with RPMI medium containing 1% BSA. Cell viability was evaluated by trypan blue dye exclusion. To determine the extent of depletion of accessory cells, samples were stained with FITC-conjugated anti-Fc receptor antibody and analyzed by flow cytometry on a FACScan instrument (Becton Dickinson). No FcR-bearing cells were detected by this procedure.
Cells were cultured in serum-free medium, referred to as ITLB, containing RPMI 1640 supplemented with 8×10^-7 M insulin (5 μg/ml), 7×10^-8 M transferrin (5 μg/ml), 2×10^-6 M linoleic acid, 2×10^-6 M delipidated BSA (0.12 mg/ml), 2 mM L-glutamine, 1 mM sodium pyruvate and antibiotics. They were seeded into 96-well flat-bottom plates at varying cellular densities in a final volume of 100 μl. In control experiments, cells were cultured in medium containing 10% FCS or 3% human serum and 5×10^-5 M 2 ME. T cells and thymocytes were activated with immobilized, purified anti-mab CD3e or by the addition of Con A in the presence or absence of different concentrations of retinoids. Unless indicated otherwise, retinoids were replenished every 12 hours to maintain a reasonably constant concentration of these labile compounds in culture. […]

[5] = system: lymphoblastoid cells (LCL); details: serum-free medium; cited from earlier work
B lymphocytes [6] = details: previous analyses with B lymphocytes (33); cited from earlier work

Molecule	activity in T cell activation relative to natural 13,14-DHR (T cells)	activity in supporting B cell growth relative to natural 13,14-DHR (B lymphocytes [1])	CPM anti-CD3, 10^-6 M Retinol (thymocytes [2])	substitution for retinol by lymphokines/cytokines (thymocytes [3])	CPM anti-CD3, no Retinol (thymocytes [3])	substitution for retinol in T cell activation (T cells)	further results
CC1=C(/C=C/C(C)=C/C=C/[C@](C)(O)[C@H](O)CO)C(C)(C)CCC1 [all-trans (13S, 14R)-DHR]	same activity	same activity					
IL-6: hrIL-6 purchased from Boehringer Mannheim			130,590 ± 25,803 CPM	None and none	1,005 ± 815 CPM		
TNF-alpha			122,905 ± 11,577 CPM	none	464 ± 95 CPM	cannot be satisfied	substitution for retinol by lymphokines/cytokines (thymocytes [3]; listed as TNF-α): does not
CC1=C(/C=C/C(C)=C/C=C/C(C)=C\CO)C(C)(C)CCC1 [13-cis-retinol]						can substitute for retinol	effectiveness relative to all-trans retinol (thymocytes [4]): equally effective as all-trans retinol
CC1=C(/C=C/C(C)=C\C=C\[C@](C)(O)[C@H](O)CO)C(C)(C)CCC1 [9-cis-(13S, 14R)-DHR]	same activity	same activity					
CC1=C(/C=C/C(C)=C\C=C\[C@@](C)(O)[C@H](O)CO)C(C)(C)CCC1 [9-cis-(13R, 14R)-DHR]	same activity	same activity					
CC1=C(/C=C/C(C)=C/C=C/C(C)=C/C=O)C(C)(C)CCC1 [all-trans retinal]						can substitute for retinol	effectiveness relative to all-trans retinol (thymocytes [4]): equally effective as all-trans retinol; support of growth of LCL [5]: support the growth of LCL; concentration at which activity was demonstrated (B lymphocytes [6]): 200 nM
CC1=C(/C=C/C(C)=C/C=C/[C@@](C)(O)[C@H](O)CO)C(C)(C)CCC1 [all-trans (13R, 14R)-DHR]	same activity	same activity					
IL-1: Human recombinant IL-1-α (protein, UniProt P01583 113-271, looked up) Interleukin-1 alpha: SAPFSFLSNVKYNFMRIIKYEFILNDALNQSIIRANDQYLTAAALHNLDEAVKFDMGAYKSSKDDAKITVILRISKTQLYVTAQDEDQPVLLKEMPEIPKTITGSETNLLFFWETHGTKNYFTSVAHPNLFIATKQDYWVCLAGGPPSITDFQILENQA			118,924 ± 3,051 CPM	None and none	959 ± 30 CPM		
IL-4: murine rIL-4 (protein, UniProt P07750 21-140, looked up) Interleukin-4: HIHGCDKNHLREIIGILNEVTGEGTPCTEMDVPNVLTATKNTTESELVCRASKVLRIFYLKHGKTPCLKKNSSVLMELQRLFRAFRCLDSSISCTMNESKSTSLKDFLESLKSIMQMDYS			115,849 ± 20,630 CPM	None and none	991 ± 105 CPM		
IFN-gamma: mouse recombinant IFN-gamma (protein, UniProt P01580 23-155, looked up) Interferon gamma: HGTVIESLESLNNYFNSSGIDVEEKSLFLDIWRNWQKDGDMKILQSQIISFYLRLFEVLKDNQAISNNISVIESHLITTFFSNSKAKKDAFMSIAKFEVNNPQVQRQAFNELIRVVHQLLPESSLRKRKRSRC			220,359 ± 27,726 CPM	can circumvent the retinol requirement and initiate durable proliferation in the absence of retinol or 14HRR	81,876 ± 11,866 CPM	can substitute for retinol	substitution for retinol by lymphokines/cytokines (thymocytes [3]; listed as interferon-gamma): can sustain thymocyte proliferation in the absence of retinol; also recorded: quite efficient in anti-CD3-mediated activation in the absence of retinol; synergy with retinol (thymocytes [3]): strong additive effects; synergy with retinol (thymocytes [3]; listed as Interferon-gamma): clear additive effect with retinol
